Assays:
[1] = Solubility of nabilone in sesame oil; type: physicochemical; settings: 5% w/w of nabilone in sesame oil; for Nabilone recovered from oil phase (w/w in mg/mL): 250 mg/g added
Excerpt: It is also challenging to solubilize nabilone in pharmaceutically acceptable oils, even at elevated temperatures.

[2] = Solubility of nabilone in water and common solvents (USP classification); type: physicochemical
Excerpt: Nabilone is difficult to solubilize in most solvents such that preparing a liquid composition comprising nabilone is very challenging. […] These solvents are not suitable for use in human pharmaceutical formulations.

CCCCCCC(C)(C)c1cc(O)c2c(c1)OC(C)(C)C1CCC(=O)CC21 (centres unmarked) [Nabilone]
Observation After Centrifuge (14000 rpm, 10 minutes) ([1]; not heated): Clear solution
Observation Before Centrifuge ([1]; not heated): Turbid
Nabilone recovered from oil phase (w/w in mg/mL) ([1]; not heated): 3.9 mg/mL
Observation After Centrifuge (14000 rpm, 10 minutes) ([1]; heated to 90° C. for 3 hours): Clear solution
Observation Before Centrifuge ([1]; heated to 90° C. for 3 hours): Turbid
Nabilone recovered from oil phase (w/w in mg/mL) ([1]; heated to 90° C. for 3 hours): 6.3 mg/mL
USP Classification of solubility ([2]; 1,4-Dioxane): Freely Soluble
USP Classification of solubility ([2]; 2-Methyltetrahydrofuran): Freely Soluble
USP Classification of solubility ([2]; Acetone): Freely Soluble
USP Classification of solubility ([2]; Dichloromethane): Freely Soluble
USP Classification of solubility ([2]; Dimethoxyethane): Freely Soluble
USP Classification of solubility ([2]; Dimethyl sulfoxide): Freely Soluble
USP Classification of solubility ([2]; Dimethylformamide): Freely Soluble
USP Classification of solubility ([2]; Methyl ethyl ketone): Freely Soluble
USP Classification of solubility ([2]; Tetrahydrofuran): Freely Soluble
USP Classification of solubility ([2]; p-Xylene): Freely Soluble
Solubility in water (USP classification) ([2]; water at any pH): insoluble

Reference: US20260207483A1, “PHARMACEUTICAL CO[…] FOR THE TREATMENT OF OPHTHALMIC CONDITIONS” (Adtech Pharma, Inc., priority 2022, published 2026)
